Where two headings read alike, the source gives them in different places. Square brackets hold non-standard residues; d marks the D form. Ends that are not written are not given here. Peptide text beside a SMILES is read from it. Cit = NC(=O)NCCC[C@H](N)C(=O)O
Key:
HLA-DRB1*01:01 = target: T1, HLA-DRB1*01:01 (Homo sapiens, UniProt P01903+P01911, A100R/D57E/F55L/F60I/F76Y/I96L/L162R/M171V/P40L/Q125E/R42F/V115G/Y59C); test: HLA class II peptide binding, inhibition of radiolabeled peptide binding to purified MHC
T1 construct: EBV transformed homozygous cell lines were used as sources of MHC molecules; endogenous in cells; host or cells: EBV transformed homozygous cell lines

HLA-DRB1*04:01 = target: T2, HLA-DRB1*04:01 (Homo sapiens, UniProt P01903+P01911, A100K/A169T/F76Y/I96L/K127E/L162R/M171V/N62H/P40V/Q125Y/R42H/S133A/S149N/S66Y/V115G/V209L/W38E); test: as above
T2 construct: EBV transformed homozygous cell lines were used as sources of MHC molecules; endogenous in cells; host or cells: EBV transformed homozygous cell lines

[1] = wild-type (unmodified Arg) 15-mer peptide, purified HLA-DRB1*01:01, read-out: DRB1*01:01 binding capacity, WT peptide (IC50 nM)
[2] = wild-type (unmodified Arg) 15-mer peptide, purified HLA-DRB1*04:01, read-out: DRB1*04:01 binding capacity, WT peptide (IC50 nM)
[3] = citrullinated 15-mer (X), purified MHC, inhibition of radiolabeled peptide binding, dash = IC50 >40,000 nM, read-out: DRB1*01:01 binding capacity, Cit peptide (IC50 nM)
[4] = citrullinated 15-mer (X), purified MHC, inhibition of radiolabeled peptide binding, dash = IC50 >40,000 nM, read-out: DRB1*04:01 binding capacity, Cit peptide (IC50 nM)
[5] = citrullinated peptide as listed (X at Cit position), read-out: DRB1*01:01 binding capacity Cit peptide (IC50 nM)
[6] = citrullinated peptide as listed (X at Cit position), read-out: DRB1*04:01 binding capacity Cit peptide (IC50 nM)

| Compound | IC50 (HLA-DRB1*01:01; [3]) [nM] | IC50 (HLA-DRB1*04:01; [4]) [nM] | also measured |
| --- | --- | --- | --- |
| MALDIEIATYRKLLE [Vimentin 391 WT] | – | – | IC50 (HLA-DRB1*01:01; [1]): 86 nM; IC50 (HLA-DRB1*04:01; [2]): 5590 nM |
| CC[C@H](C)[C@H](NC(=O)[C@H](CCC(=O)O)NC(=O)[C@H](CC(=O)O)NC(=O)[C@H](CCC(N)=O)NC(=O)[C@H](CC(C)C)NC(=O)[C@H](CCCNC(N)=O)NC(=O)CNC(=O)[C@@H](NC(=O)[C@@H](NC(=O)[C@H](CC(=O)O)NC(=O)[C@H](CCC(N)=O)NC(=O)[C@H](Cc1ccc(O)cc1)NC(=O)[C@H](CC(N)=O)NC(=O)[C@H](C)N)[C@@H](C)O)[C@@H](C)CC)C(=O)N[C@@H](CCC(N)=O)C(=O)O [ANYQDTIGXLQDEIQ] (H-ANYQDTIG[Cit]LQDEIQ-OH) | – | – | IC50 (HLA-DRB1*01:01; citrullinated 15-mer peptide (X = citrulline), purified HLA-DRB1*01:01, read-out: DRB1*01:01 binding capacity, Cit peptide (IC50 nM)): 1050 nM; IC50 (HLA-DRB1*04:01; citrullinated 15-mer peptide (X = citrulline), purified HLA-DRB1*04:01, read-out: DRB1*04:01 binding capacity, Cit peptide (IC50 nM)): 6720 nM |
| CSCC[C@H](NC(=O)[C@H](CCC(N)=O)NC(=O)[C@@H](NC(=O)[C@H](CC(N)=O)NC(=O)[C@H](C)N)C(C)C)C(=O)N[C@H](C(=O)N[C@@H](Cc1ccccc1)C(=O)N[C@@H](CC(C)C)C(=O)N[C@@H](CCCNC(N)=O)C(=O)N[C@@H](CC(C)C)C(=O)N[C@@H](CC(C)C)C(=O)N[C@@H](CO)C(=O)N[C@H](C(=O)N[C@@H](CCC(=O)O)C(=O)NCC(=O)O)[C@@H](C)O)[C@@H](C)O [ANVQMTFLXLLSTEG] (H-ANVQMTFL[Cit]LLSTEG-OH) | – | – | IC50 (HLA-DRB1*01:01; [5]): 65 nM; IC50 (HLA-DRB1*04:01; [6]): 1060 nM |
| CSCC[C@H](NC(=O)[C@H](CCC(=O)O)NC(=O)[C@H](CCC(=O)O)NC(=O)[C@H](CCC(=O)O)NC(=O)[C@H](Cc1ccc(O)cc1)NC(=O)[C@H](CC(C)C)NC(=O)[C@H](CC(=O)O)NC(=O)CNC(=O)[C@@H](N)CC(C)C)C(=O)N[C@@H](CCCNC(N)=O)C(=O)N[C@@H](CCC(=O)O)C(=O)N[C@@H](CC(C)C)C(=O)N[C@@H](CCCNC(=N)N)C(=O)N[C@@H](CCCNC(=N)N)C(=O)N[C@@H](CCC(N)=O)C(=O)O [LGDLYEEEMXELRRQ] | 13800 | > 40000 | – |
| CC[C@H](C)[C@H](NC(=O)[C@H](CCC(=O)O)NC(=O)[C@H](CCC(=O)O)NC(=O)[C@H](CCC(N)=O)NC(=O)[C@H](CC(C)C)NC(=O)[C@H](CO)NC(=O)[C@H](CCC(=O)O)NC(=O)[C@@H](NC(=O)[C@H](CCCCN)NC(=O)[C@H](CCCNC(N)=O)NC(=O)[C@@H](N)CCC(=O)O)C(C)C)C(=O)N[C@@H](C)C(=O)N[C@@H](Cc1ccccc1)C(=O)N[C@@H](CC(C)C)C(=O)N[C@@H](CCCCN)C(=O)O [EXKVESLQEEIAFLK] (H-E[Cit]KVESLQEEIAFLK-OH) | 148 | > 40000 | – |
| CC[C@H](C)[C@H](NC(=O)[C@H](CO)NC(=O)[C@H](CCC(=O)O)NC(=O)[C@@H](NC(=O)[C@H](CCC(N)=O)NC(=O)[C@H](CC(N)=O)NC(=O)[C@H](CC(N)=O)NC(=O)[C@H](CC(C)C)NC(=O)[C@H](CO)NC(=O)[C@H](CCCCN)NC(=O)[C@H](CC(C)C)NC(=O)[C@@H](NC(=O)[C@H](C)NC(=O)[C@@H](N)CC(=O)O)[C@@H](C)O)[C@@H](C)CC)C(=O)N[C@@H](CCCNC(N)=O)C(=O)O [DATLKSLNNQIESIX] (H-DATLKSLNNQIESI[Cit]-OH) | – | – | IC50 (HLA-DRB1*01:01; [5]): 9.4 nM; IC50 (HLA-DRB1*04:01; [6]): 1390 nM |
| CSCC[C@H](NC(=O)[C@H](CCC(=O)O)NC(=O)[C@H](CCC(=O)O)NC(=O)[C@H](CCC(=O)O)NC(=O)[C@H](Cc1ccc(O)cc1)NC(=O)[C@H](CC(C)C)NC(=O)[C@H](CC(=O)O)NC(=O)CNC(=O)[C@H](CC(C)C)NC(=O)[C@H](CCCNC(=N)N)NC(=O)[C@H](CO)NC(=O)[C@H](CCCCN)NC(=O)CNC(=O)[C@@H](N)CCC(N)=O)C(=O)N[C@@H](CCCNC(N)=O)C(=O)O [QGKSRLGDLYEEEMX] (H-QGKSRLGDLYEEEM[Cit]-OH; N-terminus and C-terminus assumed) | > 40000 | > 40000 | DRB1*01:01 binding capacity, WT/cit ratio (HLA-DRB1*01:01; ratio of WT IC50 to Cit IC50): 0.7; DRB1*04:01 binding capacity, WT/cit ratio (HLA-DRB1*04:01; ratio of WT IC50 to Cit IC50): 1.0 |
| QGPRGLPGTPGTDGP [Collagen 716 WT] | – | – | IC50 (HLA-DRB1*01:01; [1]): 10400 nM; IC50 (HLA-DRB1*04:01; [2]): > 40000 nM |
| CC(C)C[C@H](NC(=O)[C@H](CC(C)C)NC(=O)[C@H](CCCNC(=N)N)NC(=O)[C@@H](NC(=O)CNC(=O)[C@@H]1CCCN1C(=O)[C@@H](NC(=O)[C@H](CO)NC(=O)[C@H](CO)NC(=O)[C@@H](N)CCCNC(N)=O)C(C)C)C(C)C)C(=O)N[C@@H](CCC(N)=O)C(=O)N[C@@H](CC(=O)O)C(=O)N[C@@H](CO)C(=O)N[C@H](C(=O)N[C@@H](CC(=O)O)C(=O)O)C(C)C [XSSVPGVRLLQDSVD] (H-[Cit]SSVPGVRLLQDSVD-OH) | 533 | 9620 | – |

More lines, main results first:

| IC50 (HLA-DRB1*01:01; [3]) [nM] | IC50 (HLA-DRB1*04:01; [4]) [nM] | Compound | also measured |
| --- | --- | --- | --- |
| 12 | 3720 | CC(C)C[C@H](NC(=O)[C@H](CCCNC(=N)N)NC(=O)[C@@H](NC(=O)[C@H](C)NC(=O)[C@H](CO)NC(=O)[C@H](CO)NC(=O)[C@H](CCCNC(N)=O)NC(=O)[C@@H](NC(=O)[C@H](C)NC(=O)[C@@H](N)Cc1ccc(O)cc1)[C@@H](C)O)C(C)C)C(=O)N[C@@H](CCCNC(=N)N)C(=O)N[C@@H](CO)C(=O)N[C@@H](CO)C(=O)N[C@H](C(=O)N1CCC[C@H]1C(=O)O)C(C)C [YATXSSAVRLRSSVP] (H-YAT[Cit]SSAVRLRSSVP-OH) | – |
| 6.6 | 329 | CC(C)C[C@H](NC(=O)[C@H](CCCNC(=N)N)NC(=O)[C@@H](NC(=O)[C@H](C)NC(=O)[C@H](CO)NC(=O)[C@H](CO)NC(=O)[C@H](CCCNC(N)=O)NC(=O)[C@@H](NC(=O)[C@H](C)NC(=O)[C@H](Cc1ccc(O)cc1)NC(=O)[C@@H](NC(=O)CNC(=O)CNC(=O)[C@@H]1CCCN1C(=O)[C@@H](N)CO)C(C)C)[C@@H](C)O)C(C)C)C(=O)O [SPGGVYATXSSAVRL] (H-SPGGVYAT[Cit]SSAVRL-OH) | – |

Reference: PMC5421785, “Citrullination only infrequently impacts peptide binding to HLA class II MHC” (PLoS ONE, 2017)
